Values joined by “and” are separate entries in the source; they are usually repeats but may differ in a detail not shown here. Equal values may be shown once.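 Growth conditions: 96-well plates. Treatment: test compound, 48 hours, 5 concentrations. Analysis: linear interpolation between bracketing concentrations; unreached endpoints set to highest concentration. At the GI50, growth is halved. At the TGI there is no net growth.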

This note sets out measurements from PubChem BioAssay (NCI).

Some test systems named below: MDA-MB-435; SK-MEL-28 melanoma; RPMI-8226 leukemia; A498 renal; SF-268 CNS; A549 NSCLC; NCI-H226 lung; BT-549 breast.
Test in all cases: DTP human tumour cell line panel, 48 h

For `O=c1c2ccccc2sc2cccc(NCCCN3CCN(CCCNc4cccc5sc6ccccc6c(=O)c45)CC3)c12`, the TGI in the assay with MDA-MB-435, with SK-MEL-28 melanoma, in the assay with RPMI-8226 leukemia, with A498 renal, in the assay on SF-268 CNS and in the assay on A549 NSCLC was above 100000 nM each time. This compound yielded a TGI with NCI-H226 lung above 100000 nM.
Turning to `Cc1nc2ccccc2nc1-c1ccc(N=[N+]([O-])c2ccc(-c3nc4ccccc4nc3C)cc2)cc1`, the TGI with MDA-MB-435 is above 100000 nM; in the assay with SK-MEL-28 melanoma, above 100000 nM; in the assay on RPMI-8226 leukemia it was above 100000 nM; in the assay on A498 renal, above 89000 nM; with SF-268 CNS it was above 100000 nM; with BT-549 breast it was above 100000 nM. For the same compound, the TGI with A549 NSCLC and with NCI-H226 lung was above 100000 nM throughout.
For the compound `CCN(CC)c1nc(-c2ccc(Cl)cc2Cl)nc2ccccc12`, the GI50 with MDA-MB-435 was 18700 nM; in the assay on SK-MEL-28 melanoma it was 31800 nM; with RPMI-8226 leukemia, 32100 nM; with A498 renal it was 702 nM; in the assay with SF-268 CNS, 23100 nM; in the assay with BT-549 breast it was 25400 nM. For the same compound, the GI50 in the assay on A549 NSCLC was 17100 nM; with NCI-H226 lung, 12400 nM. Besides, the TGI in the assay on MDA-MB-435 is 48300 nM; in the assay on SK-MEL-28 melanoma it was above 100000 nM; in the assay on RPMI-8226 leukemia, above 100000 nM; in the assay with A498 renal, 7630 nM; with SF-268 CNS it was above 68800 nM; with BT-549 breast, 54100 nM. Further, the TGI stood at 57200 nM in the assay with A549 NSCLC and 31200 nM in the assay on NCI-H226 lung.
`COc1ccc(-c2oc(=O)ccc2-c2cc(OC)c(OC)c(OC)c2)cc1F`: the GI50 in the assay with MDA-MB-435 was 2130 nM; in the assay on SK-MEL-28 melanoma, 24700 nM; in the assay with RPMI-8226 leukemia, 11100 nM; with A498 renal, 25100 nM; with SF-268 CNS it was 33600 nM; in the assay on BT-549 breast, 19700 nM. Also, the GI50 in the assay on A549 NSCLC was 9910 nM; in the assay with NCI-H226 lung, 66400 nM. The TGI is 6660 nM in the assay on MDA-MB-435; above 100000 nM in the assay on SK-MEL-28 melanoma; 61400 nM in the assay with RPMI-8226 leukemia; 92900 nM in the assay on A498 renal; above 100000 nM in the assay on SF-268 CNS; 88400 nM in the assay with BT-549 breast. The TGI in the assay with A549 NSCLC and with NCI-H226 lung was above 100000 nM in each case.
Turning to `COc1cc(C2c3cc4c(cc3C(O)C(CO)C2CO)OCO4)cc(OC)c1OC` (centres undefined), the GI50 is 197 nM in the assay on MDA-MB-435; 1600 nM in the assay with SK-MEL-28 melanoma; 1590 nM with RPMI-8226 leukemia; 321 nM in the assay on A498 renal; 3320 nM with SF-268 CNS; 1920 nM in the assay with BT-549 breast. In addition, the GI50 in the assay on A549 NSCLC is 1640 nM; with NCI-H226 lung, 7470 nM. Moreover, the total growth inhibition concentration (TGI) in the assay with MDA-MB-435 is 549 nM; in the assay on SK-MEL-28 melanoma, above 100000 nM; with RPMI-8226 leukemia, above 100000 nM; in the assay on SF-268 CNS, above 100000 nM; in the assay with BT-549 breast it was above 54900 nM; in the assay on A549 NSCLC, above 100000 nM. The same compound came in with a TGI with NCI-H226 lung above 100000 nM.
For `COc1ccc(C(O)c2nccn2C)c(OC)c1` (centres undefined), the TGI in the assay with SK-MEL-28 melanoma, in the assay on RPMI-8226 leukemia, with SF-268 CNS, in the assay on BT-549 breast, in the assay on A549 NSCLC and in the assay on NCI-H226 lung was above 100000 nM throughout.
Regarding `COc1cc(CNCCCN2C(=O)c3ccc4c5c(ccc(c35)C2=O)C(=O)N(CCCNCc2cc(OC)c(OC)c(OC)c2)C4=O)cc(OC)c1OC`, the GI50 with MDA-MB-435 was 367 nM; with SK-MEL-28 melanoma, 841 nM; in the assay on RPMI-8226 leukemia, 523 nM; with A498 renal, 627 nM; in the assay with SF-268 CNS, 542 nM; with BT-549 breast, 852 nM. Further, the concentration for 50% growth inhibition (GI50) in the assay with A549 NSCLC is 305 nM; with NCI-H226 lung it was 814 nM. Also, the TGI in the assay with MDA-MB-435 turned out to be 1110 nM; in the assay with SK-MEL-28 melanoma it was 1570 nM; with RPMI-8226 leukemia it was 2340 nM; with A498 renal, 1410 nM; in the assay on SF-268 CNS it was 2270 nM; in the assay with BT-549 breast it was 1770 nM. Also, the TGI was determined as 977 nM with A549 NSCLC and 2000 nM in the assay with NCI-H226 lung.
For the compound `CCOC(=O)C(=Cc1cccc(Cl)c1)C(=O)OCC`, the GI50 with MDA-MB-435 was 2070 nM; in the assay with SK-MEL-28 melanoma, 1620 nM; in the assay on RPMI-8226 leukemia, 2100 nM; in the assay with A498 renal, 11900 nM; with SF-268 CNS, 2540 nM; in the assay with BT-549 breast, 2060 nM. In addition, the GI50 was 11400 nM in the assay on A549 NSCLC and 2490 nM with NCI-H226 lung. Further, the TGI came out at 5040 nM in the assay with MDA-MB-435; 3260 nM in the assay with SK-MEL-28 melanoma; 5320 nM with RPMI-8226 leukemia; 24200 nM with A498 renal; 7960 nM in the assay on SF-268 CNS; 5070 nM in the assay with BT-549 breast. Besides, the results for the TGI in the assay with A549 NSCLC and in the assay with NCI-H226 lung were 24600 nM and 6180 nM, respectively.
For `CCCNC(=S)/N=C/c1c(O)c2ccccc2[nH]c1=O`, the TGI in the assay with MDA-MB-435, in the assay with RPMI-8226 leukemia, in the assay with A498 renal, in the assay with SF-268 CNS, with BT-549 breast and in the assay on A549 NSCLC was above 100000 nM throughout. Besides, the TGI in the assay with NCI-H226 lung is above 100000 nM.
As for `CC(=O)c1cc2c(o1)C(=O)c1ccccc1C2=O`, the GI50 with MDA-MB-435 was 89 nM and 181 nM; in the assay with SK-MEL-28 melanoma, 222 nM and 292 nM; in the assay on RPMI-8226 leukemia, 731 nM and 917 nM; with A498 renal, 682 nM and 1370 nM; with SF-268 CNS, 280 nM and 513 nM; in the assay on BT-549 breast, 164 nM and 161 nM. The GI50 in the assay on A549 NSCLC is 217 nM and 208 nM; with NCI-H226 lung, 226 nM and 212 nM. In addition, the TGI in the assay with MDA-MB-435 was 238 nM and 330 nM; in the assay on SK-MEL-28 melanoma, 437 nM and 689 nM; with RPMI-8226 leukemia, 1800 nM and 3860 nM; in the assay on A498 renal it was 1480 nM and 2690 nM; in the assay on SF-268 CNS, 959 nM and 2300 nM; in the assay with BT-549 breast, 312 nM and 304 nM. Besides, the TGI in the assay on A549 NSCLC is 453 nM and 434 nM; in the assay on NCI-H226 lung, 500 nM and 472 nM.
On to `CC(=O)OC12c3ccccc3-c3ccccc3C1C1C(=O)N(C)C(=O)C12Cl` (centres undefined), for which the concentration for total growth inhibition (TGI) with MDA-MB-435, with SK-MEL-28 melanoma, in the assay with RPMI-8226 leukemia, with A498 renal, with SF-268 CNS and in the assay with NCI-H226 lung was above 10000 nM each time.
